Measured values from patent publication US5624687A, “Quick-dissolution solid preparation” (Yamanouchi Pharmaceutical Co., Ltd., priority 1991, dated 1997).
Where a name gives a salt, the structure may show the parent alone.

Experiment: Solubility determination of bulk substance in test solutions of various pH (37° C., 1 hour)
Format: physicochemical
Details: for solubility at 1 h: test solution
Experimental: Emonapride hydrochloride (0.05-5 g) was added to 10 ml portions of test solutions of various pH and each mixture was shaken at 37° C. for 1 hour, at the end of which it was filtered through Nucripore Membrane (pore size 0.6 μm). A definite portion of the filtrate was taken out and diluted with acetate buffer (pH 3.0) for use as a sample solution.
Separately, about 0.1 g of emonapride hydrochloride was accurately weighed out and dissolved in methanol to make exactly 100 ml. One milliliter portion of this solution was accurately taken out and diluted with acetate buffer (pH 3.0) to make exactly 100 ml for use as the standard solution. For each of the test solution and the standard solution, the absorbance at 313 nm was measured by absorption spectrometry and the solubility was determined.
In the preparation of the test solutions, JP Test Solution 1 was used for pH 1.2, acetate buffer (S.phi.rensen buffer) for pH 2.0-5.0, phosphate buffer (Clark-Lubs buffer) for pH 6.0-7.6 and JP Test Solution 2 for pH 6.8.

Compound | solubility (statement in the description) (conditions over pH 4) | solubility change with pH (as the pH exceeded 4, 37° C.) | pH dependence of dissolution (bulc substance, from solubility at various pH) | solubility at 1 h (pH≤4, 37° C.) [µg/mL] | solubility at 1 h (pH≥6.8, 37° C.) [µg/mL]
CNc1cc(OC)c(C(=O)NC2CCN(Cc3ccccc3)C2C)cc1Cl (centres unmarked) [Emonapride, N-(1-Benzyl-2-methylpyrrolidin-3-yl)-5-chloro-2-methoxy-4-methylaminobenzamide] | drastically insoluble | – | – | – | –
CNc1cc(OC)c(C(=O)NC2CCN(Cc3ccccc3)C2C)cc1Cl (centres unmarked) [emonapride hydrochloride] | – | decreased sharply | pH-dependent | ≥ 5000 | ≤ 10
